Results taken from ChEMBL document CHEMBL1146311, “Carbonic anhydrase activators: L-Adrenaline plugs the active site entrance of isozyme II, activating better isoforms I, IV, VA, VII, and XIV” (Bioorg Med Chem Lett, 2007).

How the values were obtained:
[1] = molecular target: Carbonic anhydrase 5A, mitochondrial (Homo sapiens) (UniProt P35218)
Description: Activation of human recombinant CA5A by CO2 hydration method

[2] = molecular target: Carbonic anhydrase 1 (Homo sapiens) (UniProt P00915)
Description: Activation of human recombinant CA1 by CO2 hydration method

[3] = molecular target: Carbonic anhydrase 14 (Homo sapiens) (UniProt Q9ULX7)
Chain of Carbonic anhydrase 14 (Homo sapiens) (Q9ULX7 whole entry): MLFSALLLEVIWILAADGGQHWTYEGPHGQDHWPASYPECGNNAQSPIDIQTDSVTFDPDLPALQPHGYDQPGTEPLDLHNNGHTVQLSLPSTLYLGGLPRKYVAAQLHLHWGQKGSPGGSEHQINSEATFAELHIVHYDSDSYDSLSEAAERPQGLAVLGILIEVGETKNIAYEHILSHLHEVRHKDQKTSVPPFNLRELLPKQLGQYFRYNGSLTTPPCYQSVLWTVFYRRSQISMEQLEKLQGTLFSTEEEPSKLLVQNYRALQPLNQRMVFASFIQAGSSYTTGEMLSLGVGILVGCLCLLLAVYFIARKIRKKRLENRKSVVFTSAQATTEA
Description: Activation of human recombinant CA14 by CO2 hydration method

[4] = molecular target: Carbonic anhydrase 4 (Homo sapiens) (UniProt P22748)
Chain of Carbonic anhydrase 4 (Homo sapiens) (P22748 whole entry): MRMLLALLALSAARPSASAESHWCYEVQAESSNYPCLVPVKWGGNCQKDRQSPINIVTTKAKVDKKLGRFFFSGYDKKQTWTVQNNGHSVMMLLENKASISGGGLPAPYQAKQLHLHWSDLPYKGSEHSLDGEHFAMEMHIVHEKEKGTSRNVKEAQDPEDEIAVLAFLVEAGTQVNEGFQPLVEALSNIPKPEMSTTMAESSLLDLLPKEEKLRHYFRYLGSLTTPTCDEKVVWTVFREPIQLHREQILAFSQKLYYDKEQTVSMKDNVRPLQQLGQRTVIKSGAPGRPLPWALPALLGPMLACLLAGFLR
Description: Activation of human recombinant CA4 by CO2 hydration method

[5] = molecular target: Carbonic anhydrase 2 (Homo sapiens) (UniProt P00918)
Description: Activation of human recombinant CA2 by CO2 hydration method

[6] = molecular target: Carbonic anhydrase 7 (Homo sapiens) (UniProt P43166)
Chain of Carbonic anhydrase 7 (Homo sapiens) (P43166 whole entry): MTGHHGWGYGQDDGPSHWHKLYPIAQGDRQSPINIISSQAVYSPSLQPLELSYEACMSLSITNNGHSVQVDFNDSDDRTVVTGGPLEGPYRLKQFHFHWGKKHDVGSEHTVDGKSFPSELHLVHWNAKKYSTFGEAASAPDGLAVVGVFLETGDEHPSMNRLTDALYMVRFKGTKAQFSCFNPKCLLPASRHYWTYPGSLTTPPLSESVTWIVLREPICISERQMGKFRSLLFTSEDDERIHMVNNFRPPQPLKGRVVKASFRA
Description: Activation of human recombinant CA7 by CO2 hydration method

NCCc1c[nH]cn1 [7] = details: Homo sapiens; 10 uM
Description: (§1) Activity of human recombinant CA1 at 10 uM by stopped-flow technique

[8] = test system: CNC[C@H](O)c1ccc(O)c(O)c1; details: Homo sapiens; 10 uM
Description: as §1

NCCc1c[nH]cn1 [9] = details: Homo sapiens; 10 uM; remark: listed apart in the source
Description: (§2) Activity of human recombinant CA2 at 10 uM by stopped-flow technique

[10] = test system: CNC[C@H](O)c1ccc(O)c(O)c1; details: Homo sapiens; 10 uM; remark: listed apart in the source
Description: as §2

Chain of Carbonic anhydrase 5A, mitochondrial (Homo sapiens) (P35218 whole entry): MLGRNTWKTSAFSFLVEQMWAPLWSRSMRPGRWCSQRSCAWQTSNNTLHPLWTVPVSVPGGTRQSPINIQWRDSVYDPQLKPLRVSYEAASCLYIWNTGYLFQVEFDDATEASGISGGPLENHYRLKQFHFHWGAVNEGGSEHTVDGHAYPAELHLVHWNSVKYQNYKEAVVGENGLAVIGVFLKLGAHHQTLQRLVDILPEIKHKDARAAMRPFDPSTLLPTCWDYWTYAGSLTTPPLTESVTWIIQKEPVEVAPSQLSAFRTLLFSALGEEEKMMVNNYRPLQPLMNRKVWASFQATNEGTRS
Chain of Carbonic anhydrase 1 (Homo sapiens) (P00915 2-261 limits assumed): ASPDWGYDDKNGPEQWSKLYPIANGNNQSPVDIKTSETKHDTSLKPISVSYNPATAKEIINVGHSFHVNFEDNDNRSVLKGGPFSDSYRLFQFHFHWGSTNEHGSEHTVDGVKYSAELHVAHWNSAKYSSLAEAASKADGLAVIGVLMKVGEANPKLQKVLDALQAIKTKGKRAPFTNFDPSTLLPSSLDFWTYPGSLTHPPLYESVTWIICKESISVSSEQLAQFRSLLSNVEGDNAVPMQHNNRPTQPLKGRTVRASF
Chain of Carbonic anhydrase 1 (Homo sapiens), P00915 (P00915 whole entry): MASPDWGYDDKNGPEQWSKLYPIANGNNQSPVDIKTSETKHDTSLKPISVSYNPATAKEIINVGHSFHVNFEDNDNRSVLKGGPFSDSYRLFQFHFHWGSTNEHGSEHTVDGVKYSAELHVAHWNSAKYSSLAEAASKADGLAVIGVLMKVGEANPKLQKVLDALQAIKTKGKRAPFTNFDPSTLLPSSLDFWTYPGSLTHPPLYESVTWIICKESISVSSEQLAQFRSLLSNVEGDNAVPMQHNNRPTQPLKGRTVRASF

Compound | Ka [1] [µM] | Ka [2] [µM] | Ka [3] [µM] | Ka [4] [µM] | Ka [5] [µM] | Ka [6] [µM] | kcat (NCCc1c[nH]cn1 [7]) | kcat [8] | kcat (NCCc1c[nH]cn1 [9]) | kcat [10]
NCCc1c[nH]cn1 | 2.5 | 0.05 | 1.9 | 31 | 74 | 1.3 | – | – | – | –
CNC[C@H](O)c1ccc(O)c(O)c1 | 63 | 0.09 | 36 | 45 | 96 | 60 | – | – | – | –
Carbonic anhydrase 1 (Homo sapiens), P00915 | – | – | – | – | – | – | 12.7 10^5/s | 10.4 10^5/s | – | –
Carbonic anhydrase 2 (Homo sapiens) (from UniProt P00918) | – | – | – | – | – | – | – | – | 2 10^6/s | 1.7 10^6/s
